Results on 34 compounds are retold here after patent US8389500B2, “Fused heterocyclic compounds as ion channel modulators” (Gilead Sciences, Inc., priority 2008, dated 2013).

For the first experiment, the target named is T1, wild-type human cardiac sodium channel, hNav1.5 (late sodium current) (Homo sapiens, UniProt Q14524).
T1 construct: host or cells: HEK293
T1 sequence (Q14524 whole entry): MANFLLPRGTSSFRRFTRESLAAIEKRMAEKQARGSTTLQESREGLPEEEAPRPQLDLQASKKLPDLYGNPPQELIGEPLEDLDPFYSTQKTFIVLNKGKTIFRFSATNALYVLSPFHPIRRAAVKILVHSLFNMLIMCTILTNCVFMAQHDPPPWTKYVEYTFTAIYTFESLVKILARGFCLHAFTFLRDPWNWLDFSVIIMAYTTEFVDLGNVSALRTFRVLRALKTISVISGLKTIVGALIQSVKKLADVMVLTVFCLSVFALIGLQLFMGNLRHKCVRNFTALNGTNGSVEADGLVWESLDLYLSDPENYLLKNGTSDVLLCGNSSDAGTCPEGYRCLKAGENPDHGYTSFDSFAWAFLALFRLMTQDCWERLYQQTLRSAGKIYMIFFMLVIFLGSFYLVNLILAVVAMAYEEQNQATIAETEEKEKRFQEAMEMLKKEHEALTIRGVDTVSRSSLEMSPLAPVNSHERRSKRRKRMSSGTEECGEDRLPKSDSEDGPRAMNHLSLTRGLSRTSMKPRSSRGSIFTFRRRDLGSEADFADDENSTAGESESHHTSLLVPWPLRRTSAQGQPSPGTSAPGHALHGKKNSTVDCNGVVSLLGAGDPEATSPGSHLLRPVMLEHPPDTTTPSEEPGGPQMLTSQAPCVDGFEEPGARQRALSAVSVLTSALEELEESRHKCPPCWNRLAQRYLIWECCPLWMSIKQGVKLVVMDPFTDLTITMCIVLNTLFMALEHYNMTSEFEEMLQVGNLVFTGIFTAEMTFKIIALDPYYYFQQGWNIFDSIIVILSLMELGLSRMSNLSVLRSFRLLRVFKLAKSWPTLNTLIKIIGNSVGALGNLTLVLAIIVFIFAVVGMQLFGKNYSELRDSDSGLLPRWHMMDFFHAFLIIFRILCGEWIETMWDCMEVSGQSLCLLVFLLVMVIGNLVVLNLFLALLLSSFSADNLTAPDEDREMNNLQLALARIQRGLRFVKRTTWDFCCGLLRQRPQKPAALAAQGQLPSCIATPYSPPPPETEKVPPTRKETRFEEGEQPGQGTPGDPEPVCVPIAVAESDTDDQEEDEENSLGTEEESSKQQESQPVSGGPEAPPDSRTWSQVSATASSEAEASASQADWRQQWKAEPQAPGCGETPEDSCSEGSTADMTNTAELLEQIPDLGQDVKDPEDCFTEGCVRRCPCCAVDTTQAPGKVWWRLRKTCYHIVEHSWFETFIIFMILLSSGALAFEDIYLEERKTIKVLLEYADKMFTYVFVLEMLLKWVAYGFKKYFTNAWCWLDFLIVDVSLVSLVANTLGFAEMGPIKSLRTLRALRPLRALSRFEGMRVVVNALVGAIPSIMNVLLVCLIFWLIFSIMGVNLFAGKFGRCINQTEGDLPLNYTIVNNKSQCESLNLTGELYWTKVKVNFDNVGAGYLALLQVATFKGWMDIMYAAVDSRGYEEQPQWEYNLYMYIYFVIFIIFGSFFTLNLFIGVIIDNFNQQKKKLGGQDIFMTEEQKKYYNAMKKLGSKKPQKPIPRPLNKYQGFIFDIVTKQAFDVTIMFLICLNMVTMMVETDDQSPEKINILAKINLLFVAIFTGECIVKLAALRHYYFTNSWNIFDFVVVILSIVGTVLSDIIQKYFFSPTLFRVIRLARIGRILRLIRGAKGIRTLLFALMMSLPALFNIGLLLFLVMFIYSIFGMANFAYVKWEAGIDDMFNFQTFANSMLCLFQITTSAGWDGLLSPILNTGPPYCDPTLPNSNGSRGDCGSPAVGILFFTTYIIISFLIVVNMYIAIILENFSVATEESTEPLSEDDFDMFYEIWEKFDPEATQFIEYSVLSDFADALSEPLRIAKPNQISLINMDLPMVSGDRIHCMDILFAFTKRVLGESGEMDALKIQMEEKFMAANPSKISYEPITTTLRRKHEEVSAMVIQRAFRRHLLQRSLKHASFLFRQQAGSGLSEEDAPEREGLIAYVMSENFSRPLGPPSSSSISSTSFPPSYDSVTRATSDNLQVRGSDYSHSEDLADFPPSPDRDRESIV
Nature of the experiment: Late INa screening assay (PatchXpress whole cell patch clamp). The format is cell-based. The note with it: 1 μM test compound; HEK293 hNav1.5; late INa generated with 10 μM Tefluthrin (some experiments 50 nM ATX II); read-out: Late INa % blk (1 μM test cmpd). The method, then:
The late sodium current (Late INa) and peak sodium current (Peak INa) assays are performed on an automated electrophysiology platform, PatchXpress 7000A (MDS Analytical Technologies, Sunnyvale, Calif.), which uses the whole cell patch clamp technique to measure currents through the cell membrane of up to 16 cells at a time. The assay uses an HEK293 (human embryonic kidney) cell line heterologously expressing the wild-type human cardiac sodium channel, hNav1.5, purchased from Millipore (Billerica, Mass.). No beta subunits were coexpressed with the Na channel alpha subunit. Cells are maintained with standard tissue culture procedures and stable channel expression is maintained with 400 μg/ml Geneticin in the culture medium. […] Experiments are carried out at 24-27° C.
For both the Late INa and Peak INa assays, series resistance compensation is set to 50% and whole-cell compensation is performed automatically. […] Currents through open sodium channels are automatically recorded and stored in the DataXpress2 database (MDS Analytical Technologies, Sunnyvale, Calif.). Analysis is performed using DataXpress2 analysis software and data are compiled in Excel.
Compound stocks are routinely made in glass vials to 10 mM in dimethyl sulfoxide (DMSO). In some cases, when compounds are not soluble in DMSO, they are made in 100% ethanol. Stocks are sonicated as necessary. The extracellular solution for screening Late INa is composed of: 140 mM NaCl, 4 mM KCl, 1.8 mM CaCl2, 0.75 mM MgCl2, and 5 mM HEPES with pH adjusted to 7.4 using NaOH. The extracellular solution for screening Peak INa is composed of: 20 mM NaCl, 120 mM N-methyl-D glucamine, 4 mM KCl, 1.8 mM CaCl2, 0.75 mM MgCl2, and 5 mM HEPES with pH adjusted to 7.4 using HCl. The intracellular solution used to perfuse the inside of the cells for both the Late INa and Peak INa assays contains: 120 mM CsF, 20 mM CsCl, 5 mM EGTA, 5 mM HEPES and pH adjusted to 7.4 with CsOH. […] The 0Na extracellular solution used at the end of each experiment for the Late INa and Peak INa assays to measure baseline current contains: 140 mM N-methyl-D-glucamine; 4 mM KCl; 1.8 mM CaCl2; 0.75 mM MgCl2; 5 mM HEPES and pH was adjusted to 7.4 with HCl.
For the Late INa assay, sodium channels are activated every 10 seconds (0.1 Hz) by depolarizing the cell membrane to −20 mV for 250 milliseconds (ms) from a holding potential of −120 mV. In response to a −20 mV voltage step, typical Nav1.5 sodium currents activate rapidly to a peak negative current and then inactivate nearly completely within […].
All compounds are tested to determine their activity in blocking the late sodium current. Late INa current is generated by adding 10 μM Tefluthrin (pyrethroid) to the extracellular solution while recording Na currents For some experiments, 50 nM ATX II (sea anemone toxin), another late Na activator, was used to generate the late component. […] After establishing the whole cell recording configuration, late INa activators are added to each well 4 times over a 16-17 minute period so that the late component of the Na current reaches a stable value. […] Measurements are made at the end of exposure to the third compound addition and values are normalized to the current level when all Na^+ is removed from the extracellular solution after two additions of ONa-ECF. Results are reported as percent block of late INa
Background: The patch-clamp technique gives a direct electrical read-out from membranes.
In the case of `CS(=O)(=O)Nc1ccc(-c2cccc(OC(F)(F)F)c2)c(Cl)c1` [PT-021, N-[2-chloro-3′-(trifluoromethoxy)biphenyl-4-yl]methanesulfonamide], the inhibition at 1 µM turned out to be 34%. As for `CS(=O)(=O)Nc1ccc(-c2ccc(F)c(Cl)c2)c(Cl)c1` [PT-038, N-(2,3′-dichloro-4′-fluorobiphenyl-4-yl)methanesulfonamide], the inhibition at 1 µM amounted to 28.8%. For the compound `Cc1cc(-c2ccc(Oc3ccccc3)cc2)c(Cl)cc1NS(C)(=O)=O` [PT-041, N-(2-chloro-5-methyl-4′-phenoxybiphenyl-4-yl)methanesulfonamide], the inhibition at 1 µM was 45%. Turning to `CS(=O)(=O)Nc1ccc(-c2ccc(Cl)cc2)c(Cl)c1` [PT-043, N-(2,4′-dichlorobiphenyl-4-yl)methanesulfonamide], the inhibition at 1 µM was 17.4%.

Staying with this experiment, now noted: 10 μM test compound; HEK293 hNav1.5; late INa generated with 10 μM Tefluthrin (some experiments 50 nM ATX II); read-out: Late INa % blk (10 μM test cmpd).
Regarding `CS(=O)(=O)Nc1ccc(-c2ccc(F)c(F)c2)cc1` [PT-002, N-(3′,4′-difluorobiphenyl-4-yl)methanesulfonamide], the inhibition at 10 µM came out at 21.8%. Same read-out and setting: the figure for `COc1cc(NS(C)(=O)=O)ccc1-c1ccc(C(F)(F)F)cc1` [PT-004, N-[2-methoxy-4′-(trifluoromethyl)biphenyl-4-yl]methanesulfonamide] is 42.8%; for `CS(=O)(=O)Nc1ccc(-c2ccc(Cl)c(F)c2)cc1` [PT-005, N-(4′-chloro-3′-fluorobiphenyl-4-yl)methanesulfonamide] it is 20.5%. `CS(=O)(=O)Nc1ccc(-c2ccc(C(F)(F)F)cc2)cc1` [PT-006, N-[4′-(trifluoromethyl)biphenyl-4-yl]methanesulfonamide]: the inhibition at 10 µM is 22.7%. Same read-out and setting: the figure for `CS(=O)(=O)Nc1ccc(-c2ccc(F)c(Cl)c2)cc1` [PT-007, N-(3′-chloro-4′-fluorobiphenyl-4-yl)methanesulfonamide] is 34.9%. Consider `CS(=O)(=O)Nc1ccc(-c2cccc(OC(F)(F)F)c2)cc1` [PT-008, N-[3′-(trifluoromethoxy)biphenyl-4-yl]methanesulfonamide], for which the inhibition at 10 µM turned out to be 39.4%.

Regarding `COc1cc(NS(C)(=O)=O)ccc1-c1ccc(OC(F)(F)F)cc1` [PT-009, N-[2-methoxy-4′-(trifluoromethoxy)biphenyl-4-yl]methanesulfonamide], the inhibition at 10 µM was found to be 20.9%. On to `COc1cc(NS(C)(=O)=O)ccc1-c1cccc(OC(F)(F)F)c1` [PT-010, N-[2-methoxy-3′-(trifluoromethoxy)biphenyl-4-yl]methanesulfonamide], for which the inhibition at 10 µM turned out to be 48.2%.

For `COc1cc(NS(C)(=O)=O)ccc1-c1ccccc1OC(F)(F)F` [PT-011, N-[2-methoxy-2′-(trifluoromethoxy)biphenyl-4-yl]methanesulfonamide], the inhibition at 10 µM turned out to be 47.6%. Turning to `CS(=O)(=O)Nc1ccc(-c2ccc(Cl)c(F)c2)c(C(F)(F)F)c1` [PT-012, N-[4′-chloro-3′-fluoro-2-(trifluoromethyl)biphenyl-4-yl]methanesulfonamide], the inhibition at 10 µM is 52%. Same read-out and setting: the figure for `CS(=O)(=O)Nc1ccc(-c2ccc(OC(F)(F)F)cc2)c(C(F)(F)F)c1` [PT-014, N-[4′-(trifluoromethoxy)-2-(trifluoromethyl)biphenyl-4-yl]methanesulfonamide] is 50.5%; for `CS(=O)(=O)Nc1ccc(-c2cccc(OC(F)(F)F)c2)c(C(F)(F)F)c1` [PT-015, N-[3′-(trifluoromethoxy)-2-(trifluoromethyl)biphenyl-4-yl]methanesulfonamide] it is 60.8%; for `CS(=O)(=O)Nc1ccc(-c2ccccc2OC(F)(F)F)c(C(F)(F)F)c1` [PT-016, N-[2′-(trifluoromethoxy)-2-(trifluoromethyl)biphenyl-4-yl]methanesulfonamide] it is 45.8%. In the case of `CCOC(=O)CN(c1ccc(-c2ccc(Cl)c(F)c2)c(OC)c1)S(C)(=O)=O` [PT-019, ethyl N-(4′-chloro-3′-fluoro-2-methoxybiphenyl-4-yl)-N-(methylsulfonyl)glycinate], the inhibition at 10 µM amounted to 55%.

Consider `CCOC(=O)CN(c1ccc(-c2cccc(OC(F)(F)F)c2)c(OC)c1)S(C)(=O)=O` [PT-020, ethyl N-[2-methoxy-3′-(trifluoromethoxy)biphenyl-4-yl]-N-(methylsulfonyl)glycinate], for which the inhibition at 10 µM came to 52.9%.

Turning to `CS(=O)(=O)Nc1ccc(-c2cccc(OC(F)(F)F)c2)c(Cl)c1` [PT-021, N-[2-chloro-3′-(trifluoromethoxy)biphenyl-4-yl]methanesulfonamide], the inhibition at 10 µM worked out at 77.5%.

With `CS(=O)(=O)Nc1ccc(-c2ccc(F)c(F)c2)c(Cl)c1` [PT-023, N-(2-chloro-3′,4′-difluorobiphenyl-4-yl)methanesulfonamide], the inhibition at 10 µM came to 48.2%. As for `CS(=O)(=O)Nc1ccc(-c2ccc(F)cc2F)c(Cl)c1` [PT-024, N-(2-chloro-2′,4′-difluorobiphenyl-4-yl)methanesulfonamide], the inhibition at 10 µM came out at 43.5%.

For the compound `CCOC(=O)CN(c1ccc(-c2ccc(Cl)c(F)c2)c(Cl)c1)S(C)(=O)=O` [PT-025, ethyl N-(2,4′-dichloro-3′-fluorobiphenyl-4-yl)-N-(methylsulfonyl)glycinate], the inhibition at 10 µM was found to be 60%. The same measure, in the same setting: the figure for `CCCS(=O)(=O)Nc1ccc(-c2ccc(Cl)c(F)c2)c(Cl)c1` [PT-027, N-(2,4′-dichloro-3′-fluorobiphenyl-4-yl)propane-1-sulfonamide] is 55.5%. On the same count and under the same terms, the figure for `CCOC(=O)CN(c1ccc(-c2cccc(OC(F)(F)F)c2)c(Cl)c1)S(C)(=O)=O` [PT-028, ethyl N-[2-chloro-3′-(trifluoromethoxy)biphenyl-4-yl]-N-(methylsulfonyl)glycinate] is 62.1%; for `CS(=O)(=O)N(CC(=O)O)c1ccc(-c2cccc(OC(F)(F)F)c2)c(Cl)c1` [PT-029, N-[2-chloro-3′-(trifluoromethoxy)biphenyl-4-yl]-N-(methylsulfonyl)glycine] it is 28.4%. In the case of `CS(=O)(=O)Nc1ccc(-c2ccc(F)c(Cl)c2)cc1Cl` [PT-030, N-(3,3′-dichloro-4′-fluorobiphenyl-4-yl)methanesulfonamide], the inhibition at 10 µM came out at 41.4%.

In the case of `COc1cc(NS(C)(=O)=O)ccc1-c1ccc(F)cc1` [PT-031, N-(4′-fluoro-2-methoxybiphenyl-4-yl)methanesulfonamide], the inhibition at 10 µM was found to be 17.1%. Regarding `COc1cc(NS(C)(=O)=O)ccc1-c1ccc(Cl)cc1` [PT-032, N-(4′-chloro-2-methoxybiphenyl-4-yl)methanesulfonamide], the inhibition at 10 µM was 42%. Regarding `CS(=O)(=O)Nc1ccc(-c2ccc(Oc3ccccc3)cc2)cc1` [PT-033, N-(4′-phenoxybiphenyl-4-yl)methanesulfonamide], the inhibition at 10 µM was determined as 15.1%. As to `CS(=O)(=O)Nc1ccc(-c2ccccc2F)c(Cl)c1` [PT-035, N-(2-chloro-2′-fluorobiphenyl-4-yl)methanesulfonamide], the inhibition at 10 µM was 48.2%. `CS(=O)(=O)Nc1ccc(-c2cccc(C(F)(F)F)c2)c(Cl)c1` [PT-036, N-[2-chloro-3′-(trifluoromethyl)biphenyl-4-yl]methanesulfonamide]: the inhibition at 10 µM stood at 64.1%. Regarding `CS(=O)(=O)Nc1ccc(-c2ccc(F)cc2)c(Cl)c1` [PT-037, N-(2-chloro-4′-fluorobiphenyl-4-yl)methanesulfonamide], the inhibition at 10 µM came to 40.4%.

Turning to `CS(=O)(=O)Nc1ccc(-c2ccc(F)c(Cl)c2)c(Cl)c1` [PT-038, N-(2,3′-dichloro-4′-fluorobiphenyl-4-yl)methanesulfonamide], the inhibition at 10 µM is 71%. Turning to `Cc1cc(NS(C)(=O)=O)ccc1-c1ccc(F)c(Cl)c1` [PT-039, N-(3′-chloro-4′-fluoro-2-methylbiphenyl-4-yl)methanesulfonamide], the inhibition at 10 µM stood at 62.9%.

For the compound `Cc1cc(-c2ccc(Oc3ccccc3)cc2)c(Cl)cc1NS(C)(=O)=O` [PT-041, N-(2-chloro-5-methyl-4′-phenoxybiphenyl-4-yl)methanesulfonamide], the inhibition at 10 µM is 59.3%.

In the case of `Cc1cc(-c2ccc(Oc3ccccc3)cc2)ccc1NS(C)(=O)=O` [PT-042, N-(3-methyl-4′-phenoxybiphenyl-4-yl)methanesulfonamide], the inhibition at 10 µM turned out to be 25.5%. Take `CS(=O)(=O)Nc1ccc(-c2ccc(Cl)cc2)c(Cl)c1` [PT-043, N-(2,4′-dichlorobiphenyl-4-yl)methanesulfonamide]: the inhibition at 10 µM was found to be 71.5%.
